Measurements from PubChem BioAssay AID2060601 (Molecular Pharmacology Branch, DTP, NCI, 2025).
“And” between values parts separate entries of the source, which are not always exact repeats. Equal entries are not always repeated.

Test system: 874868-142-R-J2-PDC complex spheroids, growth % test/control
Assay: Anticancer human tumor 874868-142-R-J2-PDC patient-derived head and neck squamous carcinoma cell line growth inhibition [CLK]
Details: for viability, T/C: stronger effect = lower value; active = viability on the fitted dose curve at most 10% of control; inactive = the rest
How it was run: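 Multi-cell-type spheroids combined patient-derived tumor cells with HUVEC endothelial cells and human mesenchymal stem cells. Paired agents were dosed in half-log steps down from about clinical Cmax, or from 10 microM where Cmax was unknown.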
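Note: spheroids exposed to the compounds for 7 days.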
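Throughout, for viability, T/C: 100% = DMSO vehicle control viability.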

O=C(c1cc(Cc2n[nH]c(=O)c3ccccc23)ccc1F)N1CCN(C(=O)C2CC2)CC1 + CNC(=O)c1ccc(Nc2nc(OC3CCCC3)c3c(-c4ccc5nc(C)oc5c4)c[nH]c3n2)c(OC)c1
< 31.6 nM: IC50 (curve of first compound, second compound 1 µM) | IC50 (curve of first compound, second compound 3.16 µM) | IC50 (curve of first compound, second compound 10 µM)
inactive: viability, T/C (second compound 0.0316 µM, first compound 0.0316 µM) 86.5% | viability, T/C (second compound 0.0316 µM, first compound 0.1 µM) 90.7% | viability, T/C (second compound 0.0316 µM, first compound 0.316 µM) 115% | viability, T/C (second compound 0.0316 µM, first compound 1 µM) 81.4% | viability, T/C (second compound 0.0316 µM, first compound 3.16 µM) 91.8% | viability, T/C (second compound 0.0316 µM, first compound 10 µM) 75.6% | viability, T/C (second compound 0.1 µM, first compound 0.0316 µM) 98.9% | viability, T/C (second compound 0.1 µM, first compound 0.1 µM) 76.5% | viability, T/C (second compound 0.1 µM, first compound 0.316 µM) 93.7% | viability, T/C (second compound 0.1 µM, first compound 1 µM) 87% | viability, T/C (second compound 0.1 µM, first compound 3.16 µM) 70.7% | viability, T/C (second compound 0.1 µM, first compound 10 µM) 73.4% | viability, T/C (second compound 0.316 µM, first compound 0.0316 µM) 54% | viability, T/C (second compound 0.316 µM, first compound 0.1 µM) 54.5% | viability, T/C (second compound 0.316 µM, first compound 0.316 µM) 60.8% | viability, T/C (second compound 0.316 µM, first compound 1 µM) 45.9% | viability, T/C (second compound 0.316 µM, first compound 3.16 µM) 61% | viability, T/C (second compound 0.316 µM, first compound 10 µM) 55.6% | viability, T/C (second compound 1 µM, first compound 0.0316 µM) 42.2% | viability, T/C (second compound 1 µM, first compound 0.1 µM) 40.9% | viability, T/C (second compound 1 µM, first compound 0.316 µM) 42.3% | viability, T/C (second compound 1 µM, first compound 1 µM) 41.1% | viability, T/C (second compound 1 µM, first compound 3.16 µM) 39.7% | viability, T/C (second compound 1 µM, first compound 10 µM) 41.4% | viability, T/C (second compound 3.16 µM, first compound 0.0316 µM) 41.4% | viability, T/C (second compound 3.16 µM, first compound 0.1 µM) 48.8% | viability, T/C (second compound 3.16 µM, first compound 0.316 µM) 48.8% | viability, T/C (second compound 3.16 µM, first compound 1 µM) 41% | viability, T/C (second compound 3.16 µM, first compound 3.16 µM) 50.3% | viability, T/C (second compound 3.16 µM, first compound 10 µM) 46.2% | viability, T/C (second compound 10 µM, first compound 0.0316 µM) 38.3% | viability, T/C (second compound 10 µM, first compound 0.1 µM) 48.4% | viability, T/C (second compound 10 µM, first compound 0.316 µM) 42.7% | viability, T/C (second compound 10 µM, first compound 1 µM) 41.8% | viability, T/C (second compound 10 µM, first compound 3.16 µM) 43.3% | viability, T/C (second compound 10 µM, first compound 10 µM) 42.2%
> 10000 nM: IC50 (curve of first compound, second compound 0.0316 µM) | IC50 (curve of first compound, second compound 0.1 µM) | IC50 (curve of first compound, second compound 0.316 µM)

COc1ccc([C@@H](O)c2cc(-c3ncnc4cc(N5CCOCC5)ccc34)c(F)cc2Cl)nn1
2120 nM and 3830 nM: IC50 (curve of compound)
inactive: viability, T/C (compound 0.0316 µM) 93.7% and 87.2% | viability, T/C (compound 0.1 µM) 92% and 97.7% | viability, T/C (compound 0.316 µM) 84.4% and 85% | viability, T/C (compound 1 µM) 67.6% and 79.7% | viability, T/C (compound 3.16 µM) 40.5% and 54.6% | viability, T/C (compound 10 µM) 24.7% and 26.3%

Nc1ccn(C2OC(CO)C(O)C2(F)F)c(=O)n1 (stereo not drawn)
311 nM and 572 nM: IC50 (curve of compound)
inactive: viability, T/C (compound 0.0316 µM) 81.2% and 81.7% | viability, T/C (compound 0.1 µM) 78.9% and 76.2% | viability, T/C (compound 0.316 µM) 49.2% and 54.9% | viability, T/C (compound 1 µM) 31.5% and 44.2% | viability, T/C (compound 3.16 µM) 25.7% and 40.5% | viability, T/C (compound 10 µM) 30.1% and 32.9%

CC(C)CC(NC(=O)C(Cc1ccccc1)NC(=O)c1cnccn1)B(O)O (stereo not drawn)
active: viability, T/C (compound 0.03 µM) 3.18% and 1.36% | viability, T/C (compound 0.0949 µM) 0.29% and 1.25% | viability, T/C (compound 0.3 µM) 0.24% and 4.02%
6.41 nM and 5.45 nM: IC50 (curve of compound)
inactive: viability, T/C (compound 0.000949 µM) 102% and 92.4% | viability, T/C (compound 0.003 µM) 112% and 103%
20.4% and 5.73%: viability, T/C (compound 0.00949 µM)
